Experiments:
Assay in all cases: relative viability (nuclei count vs DMSO), 5 days (fraction); higher = more cells survive
Vorinostat + Navitoclax = compound: O=C(CCCCCCC(=O)Nc1ccccc1)NO [Vorinostat] + CC1(C)CCC(c2ccc(Cl)cc2)=C(CN2CCN(c3ccc(C(=O)NS(=O)(=O)c4ccc(N[C@H](CCN5CCOCC5)CSc5ccccc5)c(S(=O)(=O)C(F)(F)F)c4)cc3)CC2)C1 [Navitoclax] (partner 0.5 µM)
In short: (§1)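 Five library-drug doses in √10 steps were combined with a fixed anchor-drug dose, or a single drug was given alone, by pin tool to lung cancer cell lines in 1536-well plates the day after seeding. Nuclei were stained and counted after 5 days. Relative viability is the nuclei count in treated wells over that in vehicle wells, taken as the median of duplicate plates.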

Vorinostat + Crizotinib = compound: O=C(CCCCCCC(=O)Nc1ccccc1)NO [Vorinostat] + C[C@@H](Oc1cc(-c2cnn(C3CCNCC3)c2)cnc1N)c1c(Cl)ccc(F)c1Cl [Crizotinib] (partner 1 µM)
In short: as §1

Vorinostat + Olaparib = compound: O=C(CCCCCCC(=O)Nc1ccccc1)NO [Vorinostat] + O=C(c1cc(Cc2n[nH]c(=O)c3ccccc23)ccc1F)N1CCN(C(=O)C2CC2)CC1 [Olaparib] (partner 8 µM)
In short: as §1

Vorinostat + Phenformin = compound: O=C(CCCCCCC(=O)Nc1ccccc1)NO [Vorinostat] + N=C(N)NC(=N)NCCc1ccccc1 [Phenformin] (partner 250 µM)
In short: as §1

Vorinostat + Dasatinib = compound: O=C(CCCCCCC(=O)Nc1ccccc1)NO [Vorinostat] + Cc1nc(Nc2ncc(C(=O)Nc3c(C)cccc3Cl)s2)cc(N2CCN(CCO)CC2)n1 [Dasatinib] (partner 0.075 µM)
In short: as §1

Cell Line | relative viability (Vorinostat + Navitoclax; first compound 0.253 µM) | relative viability (Vorinostat + Navitoclax; first compound 0.8 µM) | relative viability (Vorinostat + Navitoclax; first compound 2.53 µM) | relative viability (Vorinostat + Navitoclax; first compound 8 µM) | relative viability (Vorinostat + Crizotinib; first compound 0.253 µM) | relative viability (Vorinostat + Crizotinib; first compound 0.8 µM) | relative viability (Vorinostat + Crizotinib; first compound 2.53 µM) | relative viability (Vorinostat + Crizotinib; first compound 8 µM) | relative viability (Vorinostat + Olaparib; first compound 0.253 µM) | relative viability (Vorinostat + Olaparib; first compound 0.8 µM) | relative viability (Vorinostat + Olaparib; first compound 2.53 µM) | relative viability (Vorinostat + Olaparib; first compound 8 µM) | relative viability (Vorinostat + Phenformin; first compound 0.253 µM) | relative viability (Vorinostat + Phenformin; first compound 0.8 µM) | relative viability (Vorinostat + Phenformin; first compound 2.53 µM) | relative viability (Vorinostat + Phenformin; first compound 8 µM) | relative viability (Vorinostat + Dasatinib; first compound 0.253 µM) | relative viability (Vorinostat + Dasatinib; first compound 0.8 µM) | relative viability (Vorinostat + Dasatinib; first compound 2.53 µM) | relative viability (Vorinostat + Dasatinib; first compound 8 µM)
NCI-H1703 | 1.46 | 1.47 | 0.888 | 0.161 | 0.977 | 0.716 | 0.298 | 0.113 | 0.407 | 0.51 | 0.625 | 0.157 |  |  |  |  |  |  |  | 
A549 | 1.31 | 1.08 | 0.352 | 0.0351 | 0.528 | 0.107 | 0.054 | 0.0379 | 0.278 | 0.177 | 0.0609 | 0.0236 | 0.17 | 0.168 | 0.0474 | 0.0242 |  |  |  | 
HCC-366 | 1.03 | 0.9 | 0.135 | 0.0208 | 0.217 | 0.1 | 0.0143 | 0.0124 | 0.249 | 0.116 | 0.0308 | 0.0193 | 0.689 | 0.605 | 0.338 | 0.0385 | 0.805 | 0.426 | 0.102 | 0.0346
COR-L23 | 1.13 | 0.503 | 0.0887 | 0.0849 | 0.542 | 0.25 | 0.0669 | 0.0606 | 0.301 | 0.246 | 0.0921 | 0.0666 | 0.368 | 0.322 | 0.107 | 0.0712 | 0.501 | 0.291 | 0.0778 | 0.0572
PC-14 | 1.16 | 0.985 | 0.198 | 0.091 | 0.888 | 0.865 | 0.215 | 0.0683 | 0.351 | 0.197 | 0.064 | 0.0386 | 0.713 | 0.561 | 0.131 | 0.0278 | 0.344 | 0.239 | 0.0451 | 0.026
SW 1573 | 1.12 | 0.891 | 0.349 | 0.0555 | 0.845 | 0.665 | 0.297 | 0.156 | 0.745 | 0.399 | 0.212 | 0.0539 | 0.613 | 0.556 | 0.355 | 0.0821 | 0.593 | 0.789 | 0.112 | 0.0513
LK-2 | 0.939 | 0.585 | 0.169 | 0.0764 | 0.227 | 0.237 | 0.175 | 0.0931 | 0.705 | 0.62 | 0.309 | 0.0471 | 0.778 | 0.321 | 0.197 | 0.126 | 0.36 | 0.188 | 0.114 | 0.123
HCC-44 | 0.986 | 0.967 | 0.542 | 0.137 | 0.728 | 0.783 | 0.224 | 0.0957 | 1.04 | 1.05 | 0.658 | 0.317 | 0.147 | 0.108 | 0.0733 | 0.0646 |  |  |  | 

Source: the supplement of paper PMC10307832
